Experimental data reported in publication PMC11204291, “Structural characterization of macro domain–containing Thoeris antiphage defense systems” (Science Advances, 2024).

Tests used:
[1] = target: T1, EcThsA (ThsA TM-macro effector), macro domain (Escherichia coli, UniProt A0A0H2V895, F250A/I219A/K249E/Q207E/R182E/R221E); assay: ITC (~[…]); STD NMR; type: binding
T1 construct: gene c2400; EcThsA^Macro; residues 62 to 278
T1 sequence (A0A0H2V895 62-278 R182E/Q207E/I219A/R221E/K249E/F250A): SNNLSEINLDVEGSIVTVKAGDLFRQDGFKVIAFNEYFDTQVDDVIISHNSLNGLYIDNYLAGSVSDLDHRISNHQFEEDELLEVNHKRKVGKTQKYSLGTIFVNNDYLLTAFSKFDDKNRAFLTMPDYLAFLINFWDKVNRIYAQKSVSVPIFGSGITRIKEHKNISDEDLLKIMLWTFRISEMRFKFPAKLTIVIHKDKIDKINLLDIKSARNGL

[2] = target: T2, EcThsA (ThsA TM-macro effector), macro domain (Escherichia coli, UniProt A0A0H2V895); assay: crystal structure of soaked complex ([…] Å); STD NMR; type: binding
T2 construct: gene c2400; EcThsA^Macro; residues 62 to 278
T2 sequence (A0A0H2V895 62-278): T1 sequence (A0A0H2V895 62-278 R182E/Q207E/I219A/R221E/K249E/F250A)

[3] = target: T3, EcThsA (ThsA TM-macro effector), macro domain (Escherichia coli, UniProt A0A0H2V895, N114A); assay: STD NMR; type: binding
T3 construct: gene c2400; EcThsA^Macro; residues 62 to 278

[4] = target: T4, PcThsA (ThsA TM-macro effector), macro domain (Pseudomonas corrugata, UniProt A0A7Y5Z1U6); assay: crystal structure ([…] Å) with copurified ligand; LC-MS; type: binding
T4 construct: gene HNO91_03675; PcThsA^Macro; residues 63 to 278
T4 sequence (A0A7Y5Z1U6 entry or part of it): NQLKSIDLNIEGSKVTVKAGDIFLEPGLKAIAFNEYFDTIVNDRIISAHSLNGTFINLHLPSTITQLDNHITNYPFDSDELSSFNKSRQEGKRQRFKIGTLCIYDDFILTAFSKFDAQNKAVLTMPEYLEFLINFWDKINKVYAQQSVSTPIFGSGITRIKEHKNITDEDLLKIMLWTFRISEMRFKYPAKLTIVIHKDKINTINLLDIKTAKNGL

[5] = target: T2, EcThsA (ThsA TM-macro effector), macro domain; assay: ligand-induced self-aggregation of purified protein (turbidity, SDS-PAGE); type: binding
[6] = target: T1, EcThsA (ThsA TM-macro effector), macro domain; assay: ITC; type: binding
EcThsB1, TIR domain [7] = target: T5, EcThsB1, TIR domain (Escherichia coli, UniProt A0A0H2V8B5); assay: real-time 1H NMR NADase assay; type: biochemical
T5 construct: gene TcpC; EcThsB1^TIR; residues 165 to 307
T5 sequence (A0A0H2V8B5 165-307 limits assumed): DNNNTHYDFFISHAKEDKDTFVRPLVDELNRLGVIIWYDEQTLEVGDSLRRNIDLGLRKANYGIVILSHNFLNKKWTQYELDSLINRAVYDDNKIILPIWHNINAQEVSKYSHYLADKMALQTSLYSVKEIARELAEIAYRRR

EcThsB1, TIR domain [8] = target: T5, EcThsB1, TIR domain; assay: 1H NMR base-exchange assay; type: biochemical
[9] = target: macro domain of EcThsA (EcThsA^Macro; residues 62 to 278), wild type (E. coli CFT073); assay: SEC-MALS; Superdex 200 5/150 Increase equilibrated in gel filtration buffer, 30 μl of EcThsA^Macro at 0.25 ml/min; no ligand; monomer to dimer
[10] = target: macro domain of EcThsA (EcThsA^Macro; residues 62 to 278), wild type (E. coli CFT073); assay: aggregation assay (SDS-PAGE of soluble and insoluble fractions); protein 47 μM incubated with 1 mM ADPR (or 1 mM IAD) at 4°C for 1 hour; higher-order self-association of the dimers

For `Nc1ncnc2c1ncn2[C@@H]1O[C@H](COP(=O)(O)OP(=O)(O)OC[C@H]2O[C@H](O)[C@H](O)[C@@H]2O)[C@@H](O)[C@H]1O` [ADPR], the Kd [1] was 4.6 ± 0.5 µM, the “crystal structure of soaked complex (2.1 Å); STD NMR” value [2] was “we observed continuous electron density for a molecule corresponding to ADPR in a highly conserved cleft” and the “STD NMR” value [3] was “The N114A mutant could still bind ADPR (Fig. 1I), but the STD NMR signal intensities were different”.

For `Nc1ncnc2c1ncn2[C@@H]1O[C@H](COP(=O)(O)OP(=O)(O)OC[C@H]2O[C@@H](n3ccnc3)[C@H](O)[C@@H]2O)[C@@H](O)[C@H]1O` [IAD], the “crystal structure (1.6 Å) with copurified ligand; LC-MS” value [4] was “revealed that the PcThsA^Macro bound nucleotide has a mass corresponding to IAD”, the “ligand-induced self-aggregation of purified protein (turbidity, SDS-PAGE)” value [5] was “demonstrating that only ADPR and IAD can trigger self-aggregation of EcThsA^Macro” and the Kd [6] was 167 ± 91 nM.

In the case of `NC(=O)c1ccc[n+]([C@@H]2O[C@H](COP(=O)([O-])OP(=O)(O)OC[C@H]3O[C@@H](n4cnc5c(N)ncnc54)[C@H](O)[C@@H]3O)[C@@H](O)[C@H]2O)c1` [NAD^+], the “real-time 1H NMR NADase assay” value (EcThsB1, TIR domain [7]) is reported as “could use NAD^+ as a substrate to produce nicotinamide and ADP ribose (ADPR)”.

With `NCCc1c[nH]cn1` [histamine] the “1H NMR base-exchange assay” value (EcThsB1, TIR domain [8]) was “EcThsB1^TIR could use the histidine catabolite histamine as a substrate in base-exchange reactions, but not histidine”.

`c1c[nH]cn1` [imidazole] was tested, and the “1H NMR base-exchange assay” value (EcThsB1, TIR domain [8]) was “only imidazole, histamine, and thiazole were observed to undergo base-exchange reactions with NAD^+ in the presence of EcThsB1^TIR”.

Work on “macro domain of EcThsA (EcThsA^Macro; residues 62 to 278), wild type (domain or fragment)” yielded a stoichiometry N [9] of 2 and a percent of the protein in the insoluble fraction after incubation with ADPR or IAD [10] greater than 50%.
